Here are results for 13 compounds from ChEMBL document CHEMBL1201862, “PubChem BioAssay data set” (2004).

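These data come from cells grown in 96-well plates and exposed to compound for 48 hours at five concentrations. Here, GI50 denotes the concentration required for 50% inhibition of growth.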 Activity calls are given as the source filed them. Cut-off read from the data, not from the text of the source: active = GI50 up to about 1.1 µM and inactive = higher.

Test systems include A498; ACHN; EKVX; HCT-15; KM12; LOX IMVI; NCI-H226; NCI-H23; NCI-H522; OVCAR-8; SK-OV-3; SN12C; SNB-75; SW-620; TK-10; UACC-62; HOP-92.
Holding throughout (assay): NCI-60 cell line screen, 48 h

`N=C(N)NCCCC(NCc1c2ccccc2[n+]([O-])c2ccccc12)C(=O)O` (configuration not stated): the GI50 in the assay on A498 is 98.4 µM (inactive); with ACHN, 42.7 µM (inactive); in the assay with EKVX, > 100 µM (inactive); in the assay on HCT-15 it was 32.9 µM; with KM12 it was 50.8 µM (inactive); in the assay on LOX IMVI, 34.5 µM (inactive). For the same compound, the GI50 in the assay on NCI-H226 was 35.5 µM (inactive); in the assay on NCI-H23, 42.2 µM (inactive); in the assay on NCI-H522 it was 27 µM (inactive); with OVCAR-8, 52.5 µM (inactive); with SK-OV-3 it was > 100 µM (inactive); in the assay with SN12C it was 52.7 µM (inactive). The GI50 in the assay on SNB-75 was 28.2 µM (inactive); in the assay on SW-620, 39.8 µM (inactive); in the assay with TK-10, > 100 µM (inactive); in the assay with UACC-62 it was 54.8 µM (inactive).

Turning to `[O-][S+](Cc1cc2c(cc1Br)OCO2)c1ccccc1` (configuration not stated), the GI50 with A498 is > 100 µM (inactive); in the assay with ACHN, 64.6 µM (inactive); with EKVX it was > 100 µM (inactive); in the assay with HCT-15, 34.4 µM; with HOP-92 it was 83.9 µM (inactive); in the assay with KM12 it was 17.9 µM (inactive). Also, the GI50 was 15.7 µM (inactive) with LOX IMVI; > 100 µM (inactive) in the assay on NCI-H226; 68.2 µM (inactive) with NCI-H23; 21.6 µM (inactive) in the assay with NCI-H522; 41.4 µM (inactive) in the assay with OVCAR-8; > 100 µM (inactive) with SK-OV-3. Also, the GI50 in the assay with SN12C is 48 µM (inactive); in the assay with SNB-75, > 100 µM (inactive); in the assay with SW-620 it was 15.4 µM (inactive); in the assay with TK-10, > 100 µM (inactive); in the assay with UACC-62, 33.4 µM (inactive).

Consider `Cc1nc(-c2ccccc2)cc2c1c(=O)oc1ccccc12`, for which the GI50 is > 100 µM (inactive) with ACHN; > 100 µM (inactive) with EKVX; above 100 µM in the assay on HCT-15; > 100 µM (inactive) with HOP-92; > 100 µM (inactive) in the assay with KM12; > 100 µM (inactive) in the assay with NCI-H226. Besides, the GI50 was > 100 µM (inactive) in the assay on NCI-H23; > 100 µM (inactive) in the assay on NCI-H522; > 100 µM (inactive) in the assay on OVCAR-8; > 100 µM (inactive) in the assay on SK-OV-3; > 100 µM (inactive) in the assay on SN12C; 83.4 µM (inactive) in the assay on SNB-75. Besides, the GI50 in the assay on SW-620 was > 100 µM (inactive); in the assay on UACC-62, 46.8 µM (inactive).

In the case of `CCCNC(=O)c1cc2ccccc2cc1C(=O)OC`, the GI50 was > 100 µM (inactive) in the assay with A498; 78.2 µM (inactive) in the assay on ACHN; > 100 µM (inactive) in the assay on EKVX; above 100 µM with HCT-15; 59.2 µM (inactive) with HOP-92; > 100 µM (inactive) in the assay on KM12. Further, the GI50 in the assay with NCI-H226 was 83.4 µM (inactive); in the assay on NCI-H23 it was > 100 µM (inactive); in the assay with NCI-H522, > 100 µM (inactive); with OVCAR-8 it was > 100 µM (inactive); in the assay with SK-OV-3 it was > 100 µM (inactive); in the assay on SN12C it was > 100 µM (inactive). Also, the GI50 with SNB-75 was 19.3 µM (inactive); in the assay with SW-620 it was > 100 µM (inactive); with TK-10, > 100 µM (inactive); with UACC-62, > 100 µM (inactive).

As for `Cn1sc2ccccc2c1=S`, the GI50 with A498 was 48.5 µM (inactive); in the assay on ACHN it was 13.8 µM (inactive); with EKVX, 8.69 µM (inactive); with HCT-15, 5.5 µM; in the assay on HOP-92, 16.6 µM (inactive); in the assay on KM12, 12 µM (inactive). Moreover, the GI50 in the assay with LOX IMVI was 1.78 µM (inactive); in the assay with NCI-H226, 23.2 µM (inactive); with NCI-H23, 11.7 µM (inactive); in the assay with NCI-H522 it was 3.16 µM (inactive); in the assay with OVCAR-8, 9.71 µM (inactive); in the assay on SK-OV-3 it was 36.1 µM (inactive). The GI50 was 6.75 µM (inactive) in the assay with SN12C; 6.82 µM (inactive) with SNB-75; 2.28 µM (inactive) in the assay on SW-620; 24.1 µM (inactive) in the assay on TK-10; 5.78 µM (inactive) with UACC-62.

In the case of `Cc1nc(Nc2ccc(Cl)cc2)sc1C(=O)NNc1ccc([N+](=O)[O-])cc1[N+](=O)[O-]`, the GI50 was 15.9 µM (inactive) in the assay on A498; 17.3 µM (inactive) in the assay on ACHN; 14.9 µM (inactive) with EKVX; 23.6 µM (inactive) in the assay on HOP-92; 15.8 µM (inactive) in the assay with KM12; 15.1 µM (inactive) in the assay on LOX IMVI. In addition, the GI50 in the assay with NCI-H226 was 15.7 µM (inactive); with NCI-H23, 17.3 µM (inactive); with NCI-H522, 14 µM (inactive); in the assay with OVCAR-8 it was 21.4 µM (inactive); in the assay with SK-OV-3 it was 29.2 µM (inactive); with SN12C it was 17.7 µM (inactive). Moreover, the GI50 is 16.7 µM (inactive) in the assay with SNB-75, 22 µM (inactive) in the assay with SW-620, 19.8 µM (inactive) in the assay on TK-10 and 14.3 µM (inactive) in the assay on UACC-62.

Regarding `Cc1cc(NS(=O)(=O)c2ccc(NC(=O)c3cccn4c(=O)c5ccccc5nc34)cc2)no1`, the GI50 in the assay on A498, with ACHN, in the assay on EKVX, in the assay with HOP-92, in the assay with KM12 and in the assay on LOX IMVI was > 100 µM (inactive) throughout. In addition, the GI50 in the assay with NCI-H226, in the assay on NCI-H23, in the assay on NCI-H522, in the assay with OVCAR-8, in the assay with SK-OV-3 and in the assay with SN12C was > 100 µM (inactive) throughout. Moreover, the GI50 with SNB-75, in the assay with SW-620, in the assay on TK-10 and with UACC-62 was > 100 µM (inactive) each time.

Regarding `Cc1ncc(CCl)c2c1OC(C)(C)OC2`, the GI50 was > 100 µM (inactive) with A498; 21.3 µM (inactive) with ACHN; 20.5 µM (inactive) in the assay with EKVX; 32.2 µM (inactive) in the assay on HOP-92; 37.5 µM (inactive) in the assay on KM12; 17.3 µM (inactive) in the assay with LOX IMVI. Moreover, the GI50 was > 100 µM (inactive) with NCI-H226; > 100 µM (inactive) in the assay with NCI-H23; 17 µM (inactive) in the assay on NCI-H522; 67.1 µM (inactive) in the assay on OVCAR-8; > 100 µM (inactive) in the assay on SK-OV-3; 35.6 µM (inactive) in the assay with SN12C. Further, the GI50 is 18.7 µM (inactive) in the assay on SW-620, > 100 µM (inactive) with TK-10 and > 100 µM (inactive) in the assay on UACC-62.

Turning to `Cc1nc(C(=O)O)c2ccccc2n1`, the GI50 with A498, in the assay on ACHN, in the assay with HOP-92, with KM12, with NCI-H23 and in the assay with OVCAR-8 was > 100 µM (inactive) in each case. The GI50 in the assay on SK-OV-3, in the assay on SN12C, with SNB-75, in the assay on SW-620, with TK-10 and in the assay on UACC-62 was > 100 µM (inactive) in each case.

As for `CCCCOC(=O)NC(=O)c1cn(CCCOC(=O)CCCCCCCCC(=O)OCCCn2cc(C(=O)NC(=O)OCCCC)c(=O)n(C)c2=O)c(=O)n(C)c1=O`, the GI50 with A498 is > 100 µM (inactive); with ACHN, > 100 µM (inactive); with EKVX it was > 100 µM (inactive); in the assay on HCT-15, above 100 µM; with HOP-92 it was > 100 µM (inactive); in the assay on KM12 it was > 100 µM (inactive). Moreover, the GI50 in the assay on NCI-H226 is > 100 µM (inactive); in the assay on NCI-H23, > 100 µM (inactive); in the assay on NCI-H522 it was > 100 µM (inactive); in the assay with OVCAR-8, > 100 µM (inactive); with SN12C, > 100 µM (inactive); in the assay on SNB-75, 58.1 µM (inactive). Besides, the GI50 with SW-620, with TK-10 and with UACC-62 was > 100 µM (inactive) throughout.

Turning to `CC(C)=CCC/C(C)=C/Cc1c(O)ccc2c1[nH]c1cc(O)c(C)cc12`, the GI50 in the assay with ACHN is 8.85 µM (inactive); in the assay on HCT-15, 9.71 µM; in the assay with HOP-92, > 25 µM (inactive); with KM12, 10.6 µM (inactive); with LOX IMVI, 8.36 µM (inactive); in the assay with NCI-H226, 15.6 µM (inactive). Besides, the GI50 is 7.96 µM (inactive) in the assay with NCI-H522; 9.46 µM (inactive) in the assay with OVCAR-8; 24.2 µM (inactive) in the assay on SK-OV-3; 14.6 µM (inactive) in the assay on SN12C; 13.9 µM (inactive) in the assay with SW-620; > 25 µM (inactive) in the assay on TK-10. Besides, the GI50 in the assay with UACC-62 is 16.9 µM (inactive).

As for `CC(=O)OCc1ncccc1C(OC(C)=O)OC(C)=O`, the GI50 in the assay with A498 is > 100 µM (inactive); with ACHN, > 100 µM (inactive); in the assay on EKVX, > 100 µM (inactive); with HCT-15, above 100 µM; in the assay with HOP-92, > 100 µM (inactive); with KM12, > 100 µM (inactive). Further, the GI50 in the assay on LOX IMVI, with NCI-H23, in the assay on NCI-H522, in the assay with OVCAR-8, in the assay with SK-OV-3 and with SN12C was > 100 µM (inactive) throughout. For the same compound, the GI50 in the assay with SNB-75, in the assay with SW-620, with TK-10 and in the assay with UACC-62 was > 100 µM (inactive) each time.

As to `COc1ccc2cc3n(c(=O)c2c1)CCc1c-3cc(OC)c(OC)c1OC`, the GI50 in the assay on ACHN is > 100 µM (inactive); with EKVX, > 100 µM (inactive); in the assay with HCT-15, above 100 µM; in the assay on HOP-92, > 100 µM (inactive); in the assay on NCI-H226 it was > 100 µM (inactive); in the assay with NCI-H23, > 100 µM (inactive). The GI50 in the assay on NCI-H522 is > 100 µM (inactive); in the assay with OVCAR-8, > 100 µM (inactive); with SK-OV-3, > 100 µM (inactive); in the assay with SN12C, > 100 µM (inactive); in the assay on SNB-75 it was 34.7 µM (inactive); in the assay with SW-620 it was > 100 µM (inactive). Further, the GI50 in the assay with TK-10 and in the assay on UACC-62 was > 100 µM (inactive) in each case.
